Converted amounts (≈) assume the structure as drawn. Square brackets hold non-standard residues; d marks the D form. Peptide text beside a SMILES is read from it. Bip(4'-Cl) = N[C@@H](Cc1ccc(-c2ccc(Cl)cc2)cc1)C(=O)O; dBip(4'-Cl) = N[C@H](Cc1ccc(-c2ccc(Cl)cc2)cc1)C(=O)O; Bip(4'-Me) = Cc1ccc(-c2ccc(C[C@H](N)C(=O)O)cc2)cc1; Bip = N[C@@H](Cc1ccc(-c2ccccc2)cc1)C(=O)O; dBip = N[C@H](Cc1ccc(-c2ccccc2)cc1)C(=O)O; Phe(4-Br) = N[C@@H](Cc1ccc(Br)cc1)C(=O)O; Phe(4-Cl) = N[C@@H](Cc1ccc(Cl)cc1)C(=O)O; Phe(4-I) = N[C@@H](Cc1ccc(I)cc1)C(=O)O; Phe(4-Me) = Cc1ccc(C[C@H](N)C(=O)O)cc1
system: Mupirocin-resistant MRSA ATCC-BAA-1556; assay: microbe, parasite or virus in culture; format: cell-based, Staphylococcus aureus; details: ATCC-BAA-1556; read-out: MIC
Experimental: The MICs of test compounds were determined using the microdilution method from the Clinical and Laboratory Standards Institute (CLSI) guidelines (Clinical and Laboratory Standards Institute. Methods for dilution antimicrobial susceptibility tests for bacteria that grow aerobically; approved standard—ninth edition. Document M07-A9. Vol. 32 No. 2. Wayne, Pa.: CLSI; 2012). Briefly, bacteria were grown fresh from frozen stock in Mueller Hinton 2 (MH2) agar at 37° C. After an overnight incubation, 5 bacteria colonies were selected to grow in cation-adjusted MH2 broth in a shaking incubator (140 RPM) at 37° C. Cells were grown to an optical density (OD600) of 0.15-0.16 determined using a spectrophotometer (Molecular Devices Spectra Max Plus), which corresponds to ˜1×10^8 CFU/mL. Test compounds were constituted into 4 mM DMSO stock solutions and then subjected to 2-fold serial dilution in a 96-well plate with concentrations ranging from 100 to 0.195 μM in duplicates. […] of microbial culture containing ˜1×10^6 CFU/mL of microbes in the respective broths was introduced into each well containing 50 μL of compound solution. After an overnight incubation at 35° C., (220 RPM), OD600 measurements were conducted using the microplate spectrophotometer. The MIC was defined as the lowest antibiotic or compound concentration (μM) required to inhibit bacteria growth.
The 11th well was used as the growth control well (medium with bacterial inoculums, no antibacterial) while the 12th well was the sterility control well (medium only).

Compound | MIC
N=C(N)NCCC[C@@H](NC(=O)[C@H](N)Cc1ccc(-c2ccc(Cl)cc2)cc1)C(N)=O [Compound 37] | >100 µM
N=C(N)NCCC[C@H](NC(=O)[C@H](Cc1ccc(-c2ccccc2)cc1)NC(=O)[C@H](CCCNC(=N)N)NC(=O)[C@@H](N)Cc1ccc(-c2ccccc2)cc1)C(N)=O [Compound 3] (H-[Bip]R[Bip]R-NH2) | 12.5 µM (≈ 9.7 µg/mL)
N=C(N)NCCC[C@H](NC(=O)[C@@H](Cc1ccc(-c2ccc(Cl)cc2)cc1)NC(=O)[C@H](CCCNC(=N)N)NC(=O)[C@@H](N)Cc1ccc(-c2ccc(Cl)cc2)cc1)C(N)=O [Compound 44] (H-[Bip(4'-Cl)]R[dBip(4'-Cl)]R-NH2) | 6.25 µM (≈ 5.28 µg/mL)
N=C(N)NCCC[C@H](NC(=O)[C@H](Cc1ccc(-c2ccccc2)cc1)NC(=O)[C@H](CCCNC(=N)N)NC(=O)[C@@H](N)Cc1ccc(-c2ccc(Cl)c(Cl)c2)cc1)C(N)=O [Compound 17] | 6.25 µM (≈ 5.28 µg/mL)
N=C(N)NCCC[C@H](NC(=O)[C@H](Cc1ccccc1)NC(=O)[C@H](CCCNC(=N)N)NC(=O)[C@@H](N)Cc1ccc(-c2ccccc2)cc1)C(N)=O [Compound 6] (H-[Bip]RFR-NH2) | >100 µM
N=C(N)NCCC[C@H](NC(=O)[C@H](Cc1ccc(-c2ccccc2)cc1)NC(=O)[C@H](CCCNC(=N)N)NC(=O)[C@@H](N)Cc1ccc(-c2ccc(-c3ccccc3)cc2)cc1)C(N)=O [Compound 25] | 100 µM (≈ 85.2 µg/mL)
Cc1ccc(-c2ccc(C[C@H](NC(=O)[C@H](CCCNC(=N)N)NC(=O)[C@@H](N)Cc3ccc(-c4ccccc4)cc3)C(=O)N[C@@H](CCCNC(=N)N)C(N)=O)cc2)cc1 [Compound 22] (H-[Bip]R[Bip(4'-Me)]R-NH2) | 12.5 µM (≈ 9.87 µg/mL)
CC(C)(C)c1cc(-c2ccc(C[C@H](NC(=O)[C@H](CCCNC(=N)N)NC(=O)[C@@H](N)Cc3ccc(-c4ccccc4)cc3)C(=O)N[C@@H](CCCNC(=N)N)C(N)=O)cc2)cc(C(C)(C)C)c1 [Compound 30] | 50 µM (≈ 44.4 µg/mL)
N=C(N)NCCC[C@H](NC(=O)[C@H](Cc1ccc(-c2ccccc2)cc1)NC(=O)[C@H](CCCNC(=N)N)NC(=O)[C@@H](N)Cc1ccc(-c2ccc(Cl)cc2)cc1)C(N)=O [Compound 15] (H-[Bip(4'-Cl)]R[Bip]R-NH2) | 6.25 µM (≈ 5.07 µg/mL)
N=C(N)NCCCCNC(=O)[C@H](Cc1ccc(-c2ccccc2)cc1)NC(=O)[C@H](CCCNC(=N)N)NC(=O)[C@@H](N)Cc1ccc(-c2ccccc2)cc1 [Compound 1] | 12.5 µM (≈ 9.16 µg/mL)
NC(=O)NCCC[C@@H](N)C(=O)N[C@H](Cc1ccc(-c2ccc(Cl)cc2)cc1)C(N)=O [Compound 38] | >100 µM
N=C(N)NCCC[C@H](NC(=O)[C@H](Cc1ccc(-c2cccc(Cl)c2)cc1)NC(=O)[C@H](CCCNC(=N)N)NC(=O)[C@@H](N)Cc1ccc(-c2ccccc2)cc1)C(N)=O [Compound 28] | 6.25 µM (≈ 5.07 µg/mL)
N=C(N)NCCC[C@H](NC(=O)[C@@H](N)Cc1ccc(-c2ccc(Cl)cc2)cc1)C(=O)N[C@@H](Cc1ccc(-c2ccc(Cl)cc2)cc1)C(=O)N[C@H](CCCNC(=N)N)C(N)=O [Compound 45] (H-[Bip(4'-Cl)]R[Bip(4'-Cl)][dR]-NH2) | 6.25 µM (≈ 5.28 µg/mL)
N=C(N)NCCC[C@H](NC(=O)[C@H](Cc1ccc(-c2ccccc2)cc1)NC(=O)[C@H](CCCNC(=N)N)NC(=O)[C@@H](N)Cc1ccc(I)cc1)C(N)=O [Compound 13] (H-[Phe(4-I)]R[Bip]R-NH2) | 50 µM (≈ 41.3 µg/mL)
Cc1ccc(C[C@H](N)C(=O)N[C@@H](CCCNC(=N)N)C(=O)N[C@@H](Cc2ccc(-c3ccccc3)cc2)C(=O)N[C@@H](CCCNC(=N)N)C(N)=O)cc1 [Compound 7] (H-[Phe(4-Me)]R[Bip]R-NH2) | 100 µM (≈ 71.4 µg/mL)
N=C(N)NCCC[C@@H](NC(=O)[C@@H](Cc1ccc(-c2ccccc2)cc1)NC(=O)[C@@H](CCCNC(=N)N)NC(=O)[C@H](N)Cc1ccc(-c2ccccc2)cc1)C(N)=O [Compound 4] (H-[dBip][dR][dBip][dR]-NH2) | 12.5 µM (≈ 9.7 µg/mL)
N=C(N)NCCC[C@H](NC(=O)[C@H](Cc1ccc(-c2ccc(Cl)cc2)cc1)NC(=O)[C@H](CCCNC(=N)N)NC(=O)[C@H](N)Cc1ccc(-c2ccc(Cl)cc2)cc1)C(N)=O [Compound 42] (H-[dBip(4'-Cl)]R[Bip(4'-Cl)]R-NH2) | 6.25 µM (≈ 5.28 µg/mL)
N=C(N)NCCC[C@H](NC(=O)[C@H](Cc1ccc(-c2ccccc2)cc1)NC(=O)[C@H](CCCNC(=N)N)NC(=O)[C@@H](N)Cc1ccc(Br)cc1)C(N)=O [Compound 11] (H-[Phe(4-Br)]R[Bip]R-NH2) | 50 µM (≈ 38.9 µg/mL)
N=C(N)NCCC[C@H](NC(=O)[C@H](Cc1ccc(-c2ccc(Br)cc2)cc1)NC(=O)[C@H](CCCNC(=N)N)NC(=O)[C@@H](N)Cc1ccc(-c2ccccc2)cc1)C(N)=O [Compound 20] | 6.25 µM (≈ 5.34 µg/mL)

Results, then the compound that gave them:

MIC | Compound
6.25 µM (≈ 5.34 µg/mL) | N=C(N)NCCC[C@H](NC(=O)[C@H](Cc1ccc(-c2ccccc2)cc1)NC(=O)[C@H](CCCNC(=N)N)NC(=O)[C@@H](N)Cc1ccc(-c2ccc(Br)cc2)cc1)C(N)=O [Compound 19]
12.5 µM (≈ 10.4 µg/mL) | CC(C)(C)c1ccc(-c2ccc(C[C@H](N)C(=O)N[C@@H](CCCNC(=N)N)C(=O)N[C@@H](Cc3ccc(-c4ccccc4)cc3)C(=O)N[C@@H](CCCNC(=N)N)C(N)=O)cc2)cc1 [Compound 23]
6.25 µM (≈ 5.28 µg/mL) | N=C(N)NCCC[C@H](NC(=O)[C@H](Cc1ccc(-c2ccc(Cl)cc2)cc1)NC(=O)[C@@H](CCCNC(=N)N)NC(=O)[C@@H](N)Cc1ccc(-c2ccc(Cl)cc2)cc1)C(N)=O [Compound 43] (H-[Bip(4'-Cl)][dR][Bip(4'-Cl)]R-NH2)
3.125 µM (≈ 3.13 µg/mL) | N=C(N)NCCC[C@@H](N)C(=O)N[C@H](Cc1ccc(-c2ccc(Cl)cc2)cc1)C(=O)N[C@H](CCCNC(=N)N)C(=O)N[C@H](Cc1ccc(-c2ccc(Cl)cc2)cc1)C(=O)N[C@H](CCCNC(=N)N)C(N)=O [Compound 39] (H-[dR][dBip(4'-Cl)][dR][dBip(4'-Cl)][dR]-NH2)
100 µM (≈ 73.4 µg/mL) | N=C(N)NCCC[C@H](NC(=O)[C@H](Cc1ccc(Cl)cc1)NC(=O)[C@H](CCCNC(=N)N)NC(=O)[C@@H](N)Cc1ccc(-c2ccccc2)cc1)C(N)=O [Compound 10] (H-[Bip]R[Phe(4-Cl)]R-NH2)
6.25 µM (≈ 5.07 µg/mL) | N=C(N)NCCC[C@H](NC(=O)[C@H](Cc1ccc(-c2ccc(Cl)cc2)cc1)NC(=O)[C@H](CCCNC(=N)N)NC(=O)[C@@H](N)Cc1ccc(-c2ccccc2)cc1)C(N)=O [Compound 16] (H-[Bip]R[Bip(4'-Cl)]R-NH2)
12.5 µM (≈ 9.87 µg/mL) | Cc1ccc(-c2ccc(C[C@H](N)C(=O)N[C@@H](CCCNC(=N)N)C(=O)N[C@@H](Cc3ccc(-c4ccccc4)cc3)C(=O)N[C@@H](CCCNC(=N)N)C(N)=O)cc2)cc1 [Compound 21] (H-[Bip(4'-Me)]R[Bip]R-NH2)
100 µM (≈ 77.6 µg/mL) | N=C(N)NCCC[C@H](NC(=O)[C@H](Cc1ccc(-c2ccccc2)cc1)NC(=O)[C@H](CCCNC(=N)N)NC(=O)[C@@H](N)Cc1ccc(-c2ccccc2)cc1)C(N)=O [Compound 31] (H-[Bip]R[Bip]R-NH2)
100 µM (≈ 73.4 µg/mL) | N=C(N)NCCC[C@H](NC(=O)[C@H](Cc1ccc(-c2ccccc2)cc1)NC(=O)[C@H](CCCNC(=N)N)NC(=O)[C@@H](N)Cc1ccc(Cl)cc1)C(N)=O [Compound 9] (H-[Phe(4-Cl)]R[Bip]R-NH2)
100 µM (≈ 82.6 µg/mL) | N=C(N)NCCC[C@H](NC(=O)[C@H](Cc1ccc(I)cc1)NC(=O)[C@H](CCCNC(=N)N)NC(=O)[C@@H](N)Cc1ccc(-c2ccccc2)cc1)C(N)=O [Compound 14] (H-[Bip]R[Phe(4-I)]R-NH2)
